≈ marks a conversion by molar mass, not a printed value. Like-named read-outs stand apart in the source and are kept apart here.
Columns and labels:
[1] = system: Bacillus subtilis ATCC 6633; assay: "In vitro" MIC, Bacillus subtilis; format: cell-based; conditions: read-out: "In vitro" MIC
Method: (§1) Antimicrobial pharmacological activity (G. L. Daquet and Y. A. Chabbect, Techniques en bacteriologie (Techniques in bacteriology), vol. 3, Flammarion Medecine-Sciences, Paris, 1972, and W. B. Hugo and A. D. Rusell, Pharmaceutical Microbiology, Blackwell Scientific Publications, London (1977).
Bacillus subtilis ATCC 6633
(§2) A streak culture of each of the microorganisms is formed in tubes of antibiotics agar no. 1 and incubated for 20 hours at 37° C. A culture loop is then taken and a culture is formed in a tryptone-soya broth and incubated for 20 hours at 37° C. The resulting culture is diluted to 1/4 with Ringer's physiological solution to give a standardized suspension of 10^5 ufc/ml for each organism.
(§3) Starting from a solution of 1000 μg/ml in 0.1N NaOH, each product is diluted successively in dextrose agar (melted beforehand and kept at 50° C.) to give the following concentrations: 64-32-16-8-4-2-1-0.5-0.25-0.125 μg of derivative/ml of medium.
(§4) After this, each concentration of each product is divided up into Petri dishes of 10 cm diameter at a rate of 10 ml of medium per dish and using as many dishes as there are microorganisms to be tested.
(§5) Once the medium has cooled, the dishes are treated with the inoculations at a rate of 0.4 ml of inoculation per dish. They are spread out with a Drigalski loop and the supernatant is collected. The inoculated dishes are incubated at 37° C. for 20 hours.

[2] = system: Micrococcus flavus ATCC 10240; assay: "In vitro" MIC, Micrococcus flavus; format: cell-based; conditions: read-out: "In vitro" MIC
Method: as §1
Micrococcus flavus ATTC 10240
as §2, §3, §4, §5

Sarcina lutea ATCC 9341 = assay: "In vitro" MIC, Sarcina lutea; format: cell-based; conditions: Micrococcus luteus, read-out: "In vitro" MIC
Method: as §1, §2, §3, §4, §5

[3] = system: Staphylococcus aureus ATCC 5488/23; assay: "In vitro" MIC, Staphylococcus aureus ATCC 5488/23; format: cell-based; conditions: read-out: "In vitro" MIC
Method: as §1
Staphylococcus aureus ATCC 5488/23
as §2, §3, §4, §5

[4] = system: Staphylococcus aureus ATCC 25178; assay: "In vitro" MIC, Staphylococcus aureus ATCC 25178; format: cell-based; conditions: read-out: "In vitro" MIC
Method: as §1
Staphylococcus aureus ATCC 25178
as §2, §3, §4, §5

[5] = system: Streptococcus faecalis ATCC 10541; assay: "In vitro" MIC, Streptococcus faecalis; format: cell-based; conditions: Enterococcus faecalis, read-out: "In vitro" MIC
Method: as §1
Streptococcus faecalis ATCC 10541
as §2, §3, §4, §5

[6] = system: Enterobacter aerogenes ATCC 15038; assay: "In vitro" MIC, Enterobacter aerogenes; format: cell-based; conditions: Klebsiella aerogenes, read-out: "In vitro" MIC
Method: as §1
Enterobacter aerogenes ATCC 15038
as §2, §3, §4, §5

[7] = system: Enterobacter cloacae CHSP-20; assay: "In vitro" MIC, Enterobacter cloacae; format: cell-based; conditions: read-out: "In vitro" MIC
Method: as §1
Enterobacter cloacae CHSP-20
as §2, §3, §4, §5

[8] = system: Escherichia coli ATCC 10536; assay: "In vitro" MIC, Escherichia coli ATCC 10536; format: cell-based; conditions: read-out: "In vitro" MIC
Method: as §1
Escherichia coli ATCC 10536
as §2, §3, §4, §5

Escherichia coli R-1513 = assay: "In vitro" MIC, Escherichia coli R-1513; format: cell-based; conditions: read-out: "In vitro" MIC
Method: as §1, §2, §3, §4, §5

[9] = system: Klebsiella pneumoniae ATCC 10031; assay: "In vitro" MIC, Klebsiella pneumoniae; format: cell-based; conditions: read-out: "In vitro" MIC
Method: as §1
Klebsiella pneumoniae ATCC 10031
as §2, §3, §4, §5

[10] = system: Citrobacter freundii ATCC 11606; assay: "In vitro" MIC, Citrobacter freundii; format: cell-based; conditions: read-out: "In vitro" MIC
Method: as §1
Citrobacter freundii ATCC 11606
as §2, §3, §4, §5

[11] = system: Proteus mirabilis ATCC 4675; assay: "In vitro" MIC, Proteus mirabilis; format: cell-based; conditions: read-out: "In vitro" MIC
Method: as §1
Proteus mirabilis ATCC 4675
as §2, §3, §4, §5

Proteus morganii CHSP-16 = assay: "In vitro" MIC, Proteus morganii; format: cell-based; conditions: Morganella morganii, read-out: "In vitro" MIC
Method: as §1, §2, §3, §4, §5

[12] = system: Pseudomonas aeruginosa 25115; assay: "In vitro" MIC, Pseudomonas aeruginosa 25115; format: cell-based; conditions: read-out: "In vitro" MIC
Method: as §1
Pseudomonas aeruginosa 25115
as §2, §3, §4, §5

[13] = system: Pseudomonas aeruginosa ADSA 47; assay: "In vitro" MIC, Pseudomonas aeruginosa ADSA 47; format: cell-based; conditions: read-out: "In vitro" MIC
Method: as §1
Pseudomonas aeruginosa ADSA 47
as §2, §3, §4, §5

[14] = system: Salmonella typhimurium AMES 98; assay: "In vitro" MIC, Salmonella typhimurium AMES 98; format: cell-based; conditions: Salmonella enterica, read-out: "In vitro" MIC
Method: as §1
Salmonella typhimurium AMES 98
as §2, §3, §4, §5

[15] = system: Salmonella typhimurium AMES 100; assay: "In vitro" MIC, Salmonella typhimurium AMES 100; format: cell-based; conditions: Salmonella enterica, read-out: "In vitro" MIC
Method: as §1
Salmonella typhimurium AMES 100
as §2, §3, §4, §5

[16] = system: Serratia marcescens ATTC 13880; assay: "In vitro" MIC, Serratia marcescens; format: cell-based; conditions: read-out: "In vitro" MIC
Method: as §1
Serratia marcescens ATTC 13880
as §2, §3, §4, §5

Shigella flexnerii = assay: "In vitro" MIC, Shigella flexnerii; format: cell-based; conditions: 20 h, read-out: "In vitro" MIC
Method: as §1, §2, §3, §4, §5

Acute toxicity to mice = conditions: mouse, in vivo, ip, suspension in 5% gum arabic, mortality over 7 days
Method: The experimental animals used to determine this toxicity were albino mice of the C.F.L.P. strain and of both sexes, weighing between 19 and 25 grams. After an 18-hour fasting period with water "ad libitum", the derivatives forming the subject of the present invention are administered intraperitoneally as a suspension in 5% gum arabic. The volume of suspension administered was 0.4 ml/20 grams (20 ml/kg) in all cases, the concentration of the suspension being changed according to the dose administered.
One hour after administration of the derivatives, the animals are given a standard Panlab rat-mouse food. The mortality was observed over a period of 7 days. Differences in mortality between the sexes were not observed with any of the products.

[17] = system: Enterobacteriaceae (Pseudomonas aeruginosa); assay: "In vitro" antimicrobial activity compared with nalidixic acid, Enterobacteriaceae (Pseudomonas aeruginosa); format: cell-based
Method: as §1, §2, §3, §4, §5

Gram-positive cocci = assay: "In vitro" antimicrobial activity compared with nalidixic acid, Gram-positive cocci; format: cell-based
Method: as §1, §2, §3, §4, §5

CCn1cc(C(=O)O)c(=O)c2ccc(C)nc21 [Nalidixic acid, reference compound]
MIC ([1]; Bacillus subtilis, ATCC6633, 20 h): 1 µg/mL (≈ 4.31 µM)
MIC ([2]; Micrococcus flavus, ATCC10240, 20 h): 128 µg/mL (≈ 551 µM)
MIC (Sarcina lutea ATCC 9341; ATCC9341, 20 h): 128 µg/mL (≈ 551 µM)
MIC ([3]; Staphylococcus aureus, ATCC5488, 20 h): 32 µg/mL (≈ 138 µM)
MIC ([4]; Staphylococcus aureus, ATCC25178, 20 h): ≥ 64 µg/mL
MIC ([5]; ATCC10541, 20 h): ≥ 64 µg/mL
MIC ([6]; ATCC15038, 20 h): 4 µg/mL (≈ 17.2 µM)
MIC ([7]; Enterobacter cloacae, CHSP20, 20 h): 4 µg/mL (≈ 17.2 µM)
MIC ([8]; Escherichia coli, ATCC10536, 20 h): 0.25 µg/mL (≈ 1.08 µM)
MIC (Escherichia coli R-1513; Escherichia coli, R1513, 20 h): 4 µg/mL (≈ 17.2 µM)
MIC ([9]; Klebsiella pneumoniae, ATCC10031, 20 h): 1 µg/mL (≈ 4.31 µM)
MIC ([10]; Citrobacter freundii, ATCC11606, 20 h): 4 µg/mL (≈ 17.2 µM)
MIC ([11]; Proteus mirabilis, ATCC4675, 20 h): 8 µg/mL (≈ 34.4 µM)
MIC (Proteus morganii CHSP-16; CHSP16, 20 h): 1 µg/mL (≈ 4.31 µM)
MIC ([12]; Pseudomonas aeruginosa, 25115, 20 h): ≥ 128 µg/mL
MIC ([13]; Pseudomonas aeruginosa, ADSA47, 20 h): ≥ 128 µg/mL
MIC ([14]; TYPHIMURIUM, 20 h): 0.5 µg/mL (≈ 2.15 µM)
MIC ([15]; TYPHIMURIUM, 20 h): 0.5 µg/mL (≈ 2.15 µM)
MIC ([16]; Serratia marcescens, ATTC13880, 20 h): 1 µg/mL (≈ 4.31 µM)
MIC (Shigella flexnerii): 2 µg/mL (≈ 8.61 µM)

CNn1cc(C(=O)O)c(=O)c2cc(F)c(-n3cccc3)cc21 [Example 7, 6-fluoro-7-(pyrrol-1-yl)-1-methylamino-4-oxo-1,4-dihydroquinoline-3-carboxylic acid]
MIC ([1]; ATCC6633, Bacillus subtilis ATCC 6633, dextrose agar, 37° C., 20 hours): ≤ 0.062 µg/mL
MIC ([2]; ATCC10240, Micrococcus flavus ATCC 10240, dextrose agar, 37° C., 20 hours): 4 µg/mL (≈ 13.3 µM)
MIC (Sarcina lutea ATCC 9341; ATCC9341, Sarcina lutea ATCC 9341, dextrose agar, 37° C., 20 hours): 4 µg/mL (≈ 13.3 µM)
MIC ([3]; ATCC5488, Staphylococcus aureus ATCC 5488/23, dextrose agar, 37° C., 20 hours): 0.25 µg/mL (≈ 0.83 µM)
MIC ([4]; ATCC25178, Staphylococcus aureus ATCC 25178, dextrose agar, 37° C., 20 hours): 0.25 µg/mL (≈ 0.83 µM)
MIC ([5]; ATCC10541, Streptococcus faecalis ATCC 10541, dextrose agar, 37° C., 20 hours): 4 µg/mL (≈ 13.3 µM)
MIC ([6]; ATCC15038, Enterobacter aerogenes ATCC 15038, dextrose agar, 37° C., 20 hours): 1 µg/mL (≈ 3.32 µM)
MIC ([7]; CHSP20, Enterobacter cloacae CHSP-20, dextrose agar, 37° C., 20 hours): 1 µg/mL (≈ 3.32 µM)
MIC ([8]; ATCC10536, Escherichia coli ATCC 10536, dextrose agar, 37° C., 20 hours): ≤ 0.062 µg/mL
MIC (Escherichia coli R-1513; R1513, Escherichia coli R-1513, dextrose agar, 37° C., 20 hours): 0.5 µg/mL (≈ 1.66 µM)
MIC ([9]; ATCC10031, Klebsiella pneumoniae ATCC 10031, dextrose agar, 37° C., 20 hours): 0.125 µg/mL (≈ 0.415 µM)
MIC ([10]; ATCC11606, Citrobacter freundii ATCC 11606, dextrose agar, 37° C., 20 hours): 1 µg/mL (≈ 3.32 µM)
MIC ([11]; ATCC4675, Proteus mirabilis ATCC 4675, dextrose agar, 37° C., 20 hours): 2 µg/mL (≈ 6.64 µM)
MIC (Proteus morganii CHSP-16; CHSP16, Proteus morganii CHSP-16, dextrose agar, 37° C., 20 hours): 1 µg/mL (≈ 3.32 µM)
MIC ([12]; Pseudomonas aeruginosa 25115, dextrose agar, 37° C., 20 hours): 8 µg/mL (≈ 26.6 µM)
MIC ([13]; ADSA47, Pseudomonas aeruginosa ADSA 47, dextrose agar, 37° C., 20 hours): 16 µg/mL (≈ 53.1 µM)
MIC ([14]; Salmonella typhimurium AMES 98, dextrose agar, 37° C., 20 hours): 0.125 µg/mL (≈ 0.415 µM)
MIC ([15]; Salmonella typhimurium AMES 100, dextrose agar, 37° C., 20 hours): 0.25 µg/mL (≈ 0.83 µM)
MIC ([16]; ATTC13880, Serratia marcescens ATTC 13880, dextrose agar, 37° C., 20 hours): 1 µg/mL (≈ 3.32 µM)
MIC (Shigella flexnerii): 1 µg/mL (≈ 3.32 µM)
LD50 at 168 h (Acute toxicity to mice): > 1600 mg/kg
"in vitro" activity compared with nalidixic acid [17]: greater "in vitro" activity than nalidixic acid
"in vitro" activity compared with nalidixic acid (Gram-positive cocci): greater "in vitro" activity than nalidixic acid
